Data from patent US5594135A, “Tricyclic DNA gyrase inhibitors” (Hoffmann-La Roche Inc., priority 1994, dated 1997).
≈ marks a conversion by molar mass, not a printed value.

How the values were obtained:
DNA gyrase = molecular target: T1, DNA gyrase (Escherichia coli, UniProt P0AES4+P0AES6); assay: Inhibition of DNA gyrase activity (DNA gyrase supercoiling assay, relaxed pUC18 plasmid as substrate); assay type: biochemical, E. coli H560
T1 construct: supercoiling of relaxed pUC18
Procedure: A. Inhibition of DNA gyrase activity
The inhibition of DNA gyrase activity was measured using a DNA gyrase supercoiling assay according to R. Otter & N. Cozzarelli: Methods in Enzymology, Vol. 100, pp 171-180 (1983). DNA gyrase was isolated from E. coli H560, and relaxed pUC18 plasmid was used as substrate. The activities as regards inhibition of DNA gyrase activity, expressed as maximum non-effective concentration of the test compound (MNC in μg/ml) are compiled in the following Table 1: […]

E. coli B = assay: Antibacterial activity in vitro (agar dilution); assay type: cell-based; settings: Escherichia coli, agar dilution (MuellerHinton agar), inoculum 10^4 CFU/spot, read-out: minimum inhibitory concentration (MIC)
P. aeruginosa 799/61 = assay: Antibacterial activity in vitro (agar dilution); assay type: cell-based; settings: Pseudomonas aeruginosa, agar dilution (MuellerHinton agar), inoculum 10^4 CFU/spot, read-out: minimum inhibitory concentration (MIC)
S. aureus 25923 = assay: Antibacterial activity in vitro (agar dilution); assay type: cell-based; settings: Staphylococcus aureus, agar dilution (MuellerHinton agar), inoculum 10^4 CFU/spot, read-out: minimum inhibitory concentration (MIC)
S. aureus Smith = assay: Antibacterial activity in vitro (agar dilution); assay type: cell-based; settings: Staphylococcus aureus, agar dilution (MuellerHinton agar), inoculum 10^4 CFU/spot, read-out: minimum inhibitory concentration (MIC)
S. epidermidis 16-2 = assay: Antibacterial activity in vitro (agar dilution); assay type: cell-based; settings: Staphylococcus epidermidis, 162, agar dilution (MuellerHinton agar), inoculum 10^4 CFU/spot, read-out: minimum inhibitory concentration (MIC)
S. pyogenes 15 = assay: Antibacterial activity in vitro (agar dilution); assay type: cell-based; settings: Streptococcus pyogenes, agar dilution (MuellerHinton agar), inoculum 10^4 CFU/spot, read-out: minimum inhibitory concentration (MIC)
S. faecalis 6 = assay: Antibacterial activity in vitro (agar dilution); assay type: cell-based; settings: Enterococcus faecalis, agar dilution (MuellerHinton agar), inoculum 10^4 CFU/spot, read-out: minimum inhibitory concentration (MIC)

T1 sequence (P0AES4 whole entry, one chain of several): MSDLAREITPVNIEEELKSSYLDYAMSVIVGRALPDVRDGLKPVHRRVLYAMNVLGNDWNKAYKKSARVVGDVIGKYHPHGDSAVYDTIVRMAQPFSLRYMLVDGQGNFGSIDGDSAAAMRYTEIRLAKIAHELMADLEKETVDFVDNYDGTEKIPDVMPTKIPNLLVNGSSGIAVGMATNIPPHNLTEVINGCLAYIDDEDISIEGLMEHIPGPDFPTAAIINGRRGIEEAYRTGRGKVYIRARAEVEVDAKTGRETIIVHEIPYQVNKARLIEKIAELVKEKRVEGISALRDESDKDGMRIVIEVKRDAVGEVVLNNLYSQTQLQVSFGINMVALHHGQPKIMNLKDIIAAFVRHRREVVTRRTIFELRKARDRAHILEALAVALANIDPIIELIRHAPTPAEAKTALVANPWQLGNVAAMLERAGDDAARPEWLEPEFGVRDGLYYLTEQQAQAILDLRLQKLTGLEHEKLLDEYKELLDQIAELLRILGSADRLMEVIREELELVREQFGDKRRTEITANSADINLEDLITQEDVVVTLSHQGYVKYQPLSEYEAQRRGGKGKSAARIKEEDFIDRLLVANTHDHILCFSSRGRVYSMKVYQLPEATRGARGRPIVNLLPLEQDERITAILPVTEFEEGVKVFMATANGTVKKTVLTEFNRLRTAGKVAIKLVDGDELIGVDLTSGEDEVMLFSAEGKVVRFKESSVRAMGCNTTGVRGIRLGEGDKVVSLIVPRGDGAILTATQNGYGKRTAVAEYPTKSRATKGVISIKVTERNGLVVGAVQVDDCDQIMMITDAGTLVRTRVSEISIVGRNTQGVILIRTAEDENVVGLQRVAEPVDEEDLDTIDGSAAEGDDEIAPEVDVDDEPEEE

## COc1cc(O)c2c(c1C)C(=O)O[C@H](CO)CCC(=S)N[C@H](C(=O)NC1CCCC1)CSC2 [Example 14, (4R,9S)-15-hydroxy-9-hydroxymethyl-13-methoxy-12-methyl-11-oxo-6-thioxo-3,4,5,6,7,8,9,11-octahydro-1H-10,2,5-benzoxathiaazacyclotridecine-4-carboxylic acid cyclopentylamide]
DNA gyrase
  maximum non-effective concentration of the test compound (MNC): 0.2 µg/mL
E. coli B
  MIC: 64 mg/L (≈ 129 µM)
P. aeruginosa 799/61
  MIC: 8 mg/L (≈ 16.1 µM)
S. aureus 25923
  MIC: 16 mg/L (≈ 32.2 µM)
S. aureus Smith
  MIC: 8 mg/L (≈ 16.1 µM)
S. epidermidis 16-2
  MIC: 1 mg/L (≈ 2.01 µM)
S. pyogenes 15
  MIC: 4 mg/L (≈ 8.05 µM)
S. faecalis 6
  MIC: 4 mg/L (≈ 8.05 µM)
